US11266643B2, “Triaryl compounds for treatment of PD-L1 diseases” (CHEMOCENTRYX, INC., priority 2019, dated 2022)

What follows are compounds tested against human PD-L1 (Homo sapiens (Human), UniProt Q9NZQ7) (assay: Enzyme-Linked Immunosorbent Assay (ELISA), PD-1/PD-L1 binding). Conditions: PD-1/PD-L1 ELISA, human PD-L1 coated plates, Table 1.
Sequence of human PD-L1 (Q9NZQ7 19-239): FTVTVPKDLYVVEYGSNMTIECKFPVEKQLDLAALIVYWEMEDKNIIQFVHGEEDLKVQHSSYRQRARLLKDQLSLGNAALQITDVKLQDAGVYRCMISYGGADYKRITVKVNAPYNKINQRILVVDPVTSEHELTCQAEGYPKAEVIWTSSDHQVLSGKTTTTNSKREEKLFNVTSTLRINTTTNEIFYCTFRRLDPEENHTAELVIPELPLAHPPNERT
Procedure, shortened: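 Competitive ELISA: human PD-1 […] (0.31 μg/mL) and serially diluted compounds (1:5) incubated 1 h at 37° C on wells coated with […] human PD-L1. Signal via streptavidin-HRP/TMB, stopped with 2 N H2SO4, measured as A450.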
`COc1cc(-c2cccc(-c3cccc(NC(=O)c4cnc(N)cn4)c3C)c2C)cc(F)c1CN1CC(C(=O)O)C1` [Example 1.332] gave an IC50 of less than 10 nM.
`COc1cc(-c2cccc(-c3cccc(NC(=O)c4cnc(CC(N)=O)cn4)c3C)c2C)cc(F)c1CN` [Example 1.307] showed an IC50 of less than 10 nM.
`COc1cc(-c2cccc(-c3cccc(NC(=O)c4c[nH]c(=O)n(C)c4=O)c3C)c2C)cc(F)c1CNC1CCOC1` (stereo not drawn) [Example 1.224] was tested, and the IC50 was less than 10 nM.
In the case of `COc1cc(-c2cccc(-c3cccc(NC(=O)c4c[nH]c(=O)n(C)c4=O)c3C)c2C)cc(F)c1CN1CC(N)C1` [Example 1.227], the IC50 is reported as less than 10 nM.
In the case of `COc1cc(-c2cccc(-c3cccc(NC(=O)c4cccn(C)c4=O)c3C)c2C)cc(F)c1CN` [Example 1.311], the IC50 is reported as less than 10 nM.
`COc1cc(-c2cccc(-c3cccc(NC(=O)c4ccccn4)c3C)c2F)cc(F)c1CN1CC(C(=O)O)C1` [Example 1.348] was tested, and the IC50 was 10 to 1000 nM.
`COc1cc(-c2cccc(-c3cccc(NC(=O)c4cnc(CC(=O)O)cn4)c3C)c2C)cc(F)c1CN` [Example 1.309] showed an IC50 of less than 10 nM.
With `COc1cc(-c2cccc(-c3cccc(NC(=O)C4CCNCC4)c3C)c2C)cc(F)c1CNCCO` [Example 1.397] the IC50 was 10 to 1000 nM.
`COc1cc(-c2cccc(-c3cccc(NC(=O)c4ccncn4)c3C)c2C)cc(F)c1CN1CC(C)(C(=O)O)C1` [Example 1.340] was tested, and the IC50 was less than 10 nM.
With `COc1cc(-c2cccc(-c3cccc(NC(=O)c4ccccn4)c3C)c2C)cc(F)c1CN1CCCC[C@@H]1C(=O)O` [Example 1.377] the IC50 was 1000 to 10000 nM.
With `COc1cc(-c2cccc(-c3cccc(Nc4nccc5nccnc45)c3C)c2C)cc(F)c1CN1CC(O)C1` [Example 1.231] the IC50 was less than 10 nM.
`COc1cc(-c2cccc(-c3cccc(NC(=O)c4ccc(OCC(N)=O)cn4)c3C)c2C)cc(F)c1CN` [Example 1.296] was tested, and the IC50 was less than 10 nM.
Work on `COc1cc(-c2cccc(-c3cccc(NC(=O)c4cncn(C)c4=O)c3C)c2C)cc(F)c1CNCCC(=O)O` [Example 1.266] yielded an IC50 of less than 10 nM.
Compound `COc1cc(-c2cccc(-c3cccc(NC(=O)c4ccccn4)c3C)c2C)cc(F)c1CNC(CO)(CO)CO` [Example 1.379] has an IC50 of less than 10 nM.
`COc1cc(-c2cccc(-c3cccc(NC(=O)c4cncc(N)n4)c3C)c2C)cc(F)c1CN1CC(C(=O)O)C1` [Example 1.327] showed an IC50 of less than 10 nM.

Same assay, conditions: human PD-1/PD-L1 ELISA, plates coated with human PD-L1
Work on `COc1cc(-c2cccc(-c3cccc(NC(=O)c4nn(C)c(=O)n(C)c4=O)c3C)c2C)cc(F)c1CNC[C@H]1CCC(=O)N1` [Example 1.068] yielded an IC50 of less than 10 nM.
With `COc1cc(-c2cccc(-c3cccc(NC(=O)c4cn(C)c(=O)n(C)c4=O)c3C)c2F)cc(F)c1CN[C@H]1CCC(=O)NC1` [Example 1.005] the IC50 was less than 10 nM.
In the case of `COc1cc(-c2cccc(-c3cccc(NC(=O)c4cn(C)c(=O)n(C)c4=O)c3C)c2C)cc(F)c1CNC[C@@H]1CCC(=O)N1` [Example 1.187], the IC50 is reported as less than 10 nM.
`COc1cc(-c2cccc(-c3cccc(NC(=O)c4cn(C)c(=O)n(C)c4=O)c3Cl)c2Cl)cc(F)c1CN[C@@H]1CCOC[C@H]1O` [Example 1.006] gave an IC50 of less than 10 nM.
With `COc1cc(-c2cccc(-c3cccc(NC(=O)c4cncn(C)c4=O)c3C)c2C)cc(F)c1CN[C@@H]1CCC(=O)NC1` [Example 1.102] the IC50 was less than 10 nM.
In the case of `COc1cc(-c2cccc(-c3cccc(NC(=O)c4cncn(C)c4=O)c3C)c2C)cc(F)c1CN(C)CC(C)(C)O` [Example 1.166], the IC50 is reported as 10 to 1000 nM.
`COc1cc(-c2cccc(-c3cccc(NC(=O)c4cn(C)c(=O)n(C)c4=O)c3C)c2C)cc(F)c1CN[C@@H]1COC[C@H]1O` [Example 1.057] gave an IC50 of less than 10 nM.
Compound `COc1cc(-c2cccc(-c3cccc(NC(=O)c4c[nH]c(=O)n(C)c4=O)c3C)c2C)cc(F)c1CN[C@H]1CCNC1=O` [Example 1.135] has an IC50 of 10 to 1000 nM.
In the case of `COc1cc(-c2cccc(-c3cccc(Nc4nccc5nccnc45)c3C)c2Cl)cc(F)c1CN[C@@H]1CNC(=O)C1` [Example 1.024], the IC50 is reported as less than 10 nM.
`COc1cc(-c2cccc(-c3cccc(NC(=O)c4cncn(C)c4=O)c3C)c2C)cc(F)c1CN[C@H]1CNC(=O)C1` [Example 1.154] gave an IC50 of less than 10 nM.
`COc1cc(-c2cccc(-c3cccc(Nc4nccc5c4NCCN5)c3C)c2C)cc(F)c1CN[C@@H]1CCC[C@@H]1O` [Example 1.173] was tested, and the IC50 was 10 to 1000 nM.
`COc1cc(-c2cccc(-c3cccc(NC(=O)c4c[nH]c(=O)n(C)c4=O)c3C)c2C)cc(F)c1CNCCC1CNC(=O)C1` (stereo not drawn) [Example 1.086] was tested, and the IC50 was less than 10 nM.
Work on `COc1cc(-c2cccc(-c3cccc(NC(=O)c4c[nH]c(=O)n(C)c4=O)c3C)c2C)cc(F)c1CNCc1ncc[nH]1` [Example 1.119] yielded an IC50 of 10 to 1000 nM.
Compound `COc1cc(-c2cccc(-c3cccc(NC(=O)c4cncn(C)c4=O)c3C)c2C)cc(F)c1CN[C@@H]1CC[C@H]1O` (racemic) [Example 1.163] has an IC50 of less than 10 nM.

Same assay, conditions: plate-coated human PD-L1, biotinylated Human PD-1, absorbance at 450 nm
`COc1cc(-c2cccc(-c3cccc(NC(=O)c4cn(C)c(=O)n(C)c4=O)c3Cl)c2Cl)cc(F)c1CN1CC(C)(C(=O)O)C1` [Example 2.008] was tested, and the IC50 was less than 10 nM.
For `COc1cc(-c2cccc(-c3cccc(NC(=O)c4cn(C)c(=O)n(C)c4=O)c3C)c2Cl)cc(F)c1CN[C@H]1CCC[C@H]1O` [Example 2.053], the IC50 was less than 10 nM.
For `COc1cc(-c2cccc(-c3cccc(NC(=O)c4cn(C)c(=O)n(C)c4=O)c3Cl)c2C)cc(F)c1CN[C@@H]1CCOC[C@H]1O` [Example 2.078], the IC50 was less than 10 nM.
For `COc1cc(-c2cccc(-c3cccc(NC(=O)c4cn(C)c(=O)n(C)c4=O)c3Cl)c2Cl)cc(F)c1CN[C@@H]1COCC[C@H]1O` [Example 2.070], the IC50 was less than 10 nM.
Compound `COc1cc(-c2cccc(-c3cccc(NC(=O)c4cn(C)c(=O)n(C)c4=O)c3Cl)c2Cl)cc(F)c1CN[C@@H]1COC[C@@H]1O` [Example 2.073] has an IC50 of less than 10 nM.
With `COc1cc(-c2cccc(-c3cccc(NC(=O)c4cn(C)c(=O)n(C)c4=O)c3C)c2Cl)cc(F)c1CN1CC(C)(C(=O)O)C1` [Example 2.017] the IC50 was less than 10 nM.
`COc1cc(-c2cccc(-c3cccc(Nc4nccc5nccnc45)c3C)c2Cl)cc(F)c1CN[C@@H]1COC[C@@H]1O` [Example 2.115] showed an IC50 of less than 10 nM.
Work on `COc1cc(-c2cccc(-c3cccc(NC(=O)c4cn(C)c(=O)n(C)c4=O)c3C)c2Cl)cc(F)c1CN[C@H]1CCOC[C@@H]1O` [Example 2.089] yielded an IC50 of less than 10 nM.
`COc1cc(-c2cccc(-c3cccc(NC(=O)c4cn(C)c(=O)n(C)c4=O)c3Cl)c2C)cc(F)c1CN[C@H]1CCOC[C@@H]1O` [Example 2.077] showed an IC50 of less than 10 nM.
With `COc1cc(-c2cccc(-c3cccc(NC(=O)c4cncn(C)c4=O)c3C)c2Cl)cc(F)c1CN[C@@H]1CCOC[C@@H]1O` [Example 2.042] the IC50 was less than 10 nM.
With `COc1cc(-c2cccc(-c3cccc(NC(=O)c4cn(C)c(=O)n(C)c4=O)c3Cl)c2Cl)cc(F)c1CN[C@H]1COC[C@@H]1O` [Example 2.076] the IC50 was less than 10 nM.
With `COc1cc(-c2cccc(-c3cccc(NC(=O)c4cn(C)c(=O)n(C)c4=O)c3Cl)c2Cl)cc(F)c1CN1CC[C@@H](C(=O)O)C1` [Example 2.010] the IC50 was less than 10 nM.
For `COc1cc(-c2cccc(-c3cccc(NC(=O)c4cn(C)c(=O)n(C)c4=O)c3C)c2C)cc(F)c1CN[C@H]1CCOC[C@H]1O` [Example 2.097], the IC50 was less than 10 nM.
Work on `COc1cc(-c2cccc(-c3cccc(NC(=O)c4cn(C)c(=O)n(C)c4=O)c3C)c2Cl)ccc1CN[C@@H]1CCOC[C@@H]1O` [Example 2.054] yielded an IC50 of less than 10 nM.
With `COc1cc(-c2cccc(-c3cccc(NC(=O)c4cn(C)c(=O)n(C)c4=O)c3C)c2F)cc(F)c1CN[C@H]1CCOC[C@@H]1O` [Example 2.095] the IC50 was less than 10 nM.
Compound `COc1cc(-c2cccc(-c3cccc(NC(=O)c4cn(C)c(=O)n(C)c4=O)c3Cl)c2Cl)cc(F)c1CN1CCC(C(=O)O)CC1` [Example 2.004] has an IC50 of less than 10 nM.
